We go through five molecules from PMC8869097, “Benzothiazole Derivatives as Multifunctional Antioxidant Agents for Skin Damage: Structure–Activity Relationship of a Scaffold Bearing a Five-Membered Ring System” (Antioxidants, 2022).

As a reminder, the inhibition is the change of the read-out against control, counted positive when it falls.

The nature of one data set: In vitro DPPH test. The following applies: for DPPH (% Inhibition): compounds at 1 mg/mL, 30 min, 517 nm. How it is done:
The assay performed is adapted from Wang et al.. Briefly, 0.750 mL of 1 mg/mL solutions of the tested compounds was treated with 1.5 mL of DPPH solution in MeOH. The absorbance of samples, stored for 30 min at room temperature in the dark, was read on the spectrophotometer at 517 nm. The values obtained were converted into a radical inhibition percentage (%) by Equation (1). DPPH radical scavenging capacity (%) = [1 − A1/A0] × 100%(1) where A0 and A1 were, respectively, the absorbance without and with the sample. Subsequently, the compound with the best profile was tested in order to determine the IC50 (µg/mL). A linear regression plot is performed to calculate the actual sample concentration required to eliminate 50% of the DPPH free radicals.
The antioxidant activity of a molecule is very important and, if present, it can be synergistic with the SPF described above in reducing the damage that is ROS-induced by UV rays. For this reason, the synthesized compounds were assayed in vitro to assess their antioxidant profiles by means of the DPPH and FRAP assays (Table 2). Regarding the ability to scavenge the stable radical 2,2-diphenyl-1-picrylhydrazyl (DPPH), it was decided to investigate first the compounds synthesized at the same concentration (1 mg/mL) and evaluate the percentage of inhibition of the radical DPPH.
(In general: Loss of DPPH colour is used to gauge radical scavenging.)

A short description of data set [1]: Ferric Reducing Antioxidant Power assay (FRAP). The following applies: 593 nm. How it is done: The FRAP assay is a widely used method based on a colorimetric reaction linked to a redox and on the use of antioxidants as reducing agents.
The test evaluates the capacity of a sample to reduce ferric to ferrous ions in the presence of TPTZ (2,4,6-tripyridyl-s-triazine). The reaction mixture consists of 0.1 M acetate buffer pH 3.6, 10 mmol/L TPTZ in 40 mmol/HCl, and 20 mmol/L ferric chloride in the ratio 10/1/1 (v:v:v) as described by Benzie et al.. A total of 1.9 mL of reagent was added to 0.1 mL of suitably diluted sample or solvent. The absorbance values were measured using the UV-VIS spectrophotometer at 593 nm and expressed as µmol TE/g compound.

The next data set relates to Microsporum gypseum. The data set is described as follows: Antidermatophyte activity, plaque growth inhibition. In kind it is cell-based, Microsporum gypseum CBS 130,948. The following applies: Nannizzia gypsea; 100 μg/mL, SDA; read-out: % Inhibition Growth M. gypseum. Here is the method: (§1) The dermatophytes used in this study were Epidermophyton floccosum var. floccosum (Netherlands) CBS 358.93 strain, Trichophyton tonsurans (Netherlands) CBS 483.76 strain, Trichophyton mentagrophytes (Netherlands) CBS 160.66 strain, Microsporum canis (Iran) CBS 131,110 strain, and Microsporum gypseum (Iran) CBS 130,948 strain. All dermatophytes were maintained at 4 °C as agar slants on SDA. Candida albicans (ATCC 10231) was maintained at 4 °C on SDA plate.
(§2) The in vitro antifungal activity against the five selected dermatophytes was evaluated, as previously described, using the plaque growth inhibition method. All compounds were evaluated at the final concentration of 100 µg/mL. The percentages of growth inhibition according to Equation (5) were calculated as the average of three different experiments. I = [(C − T)/C] × 100%,(5) where I is the percentage value of growth inhibition, C is the measure of the diameter of the control circular mycelial inoculum (mm) and T is the extended diameter of the treated mycelial inoculum (mm).
(§3) All synthesized benzothiazole derivatives were evaluated to evaluate their in vitro antifungal activity against the five pathogenic dermatophytes that cause the most common dermatomycoses: Microsporum gypseum, Microsporum canis, Trichophyton mentagrophytes, Trichophyton tonsurans and Epidermophyton floccosum. All compounds were tested at a concentration of 100 µg/mL in DMSO, to evaluate the ability to inhibit the growth of dermatophyte cultures in Sabouraud Dextrose Agar (SDA). Briefly, room temperature incubation was performed and dermatophyte inhibition assessed by measuring the colony diameter at each disc for 7 days. The results are shown in Table 3 and were determined as the average of three different experiments.

For data set [2], the system named is Trichophyton mentagrophytes. The data set is described as above. In kind it is cell-based, Trichophyton mentagrophytes CBS 160.66. The settings on record: 100 μg/mL, SDA, read-out: % Inhibition Growth T. mentagrophytes. How it is done: as §1, §2, §3
In a further data set the test system is Epidermophyton floccosum. The data set is described as above. It counts as cell-based, Epidermophyton floccosum var. floccosum CBS 358.93. The settings on record: 100 μg/mL, SDA, read-out: % Inhibition Growth E. floccosum. Here is the method:
as §1, §2, §3

Data set [3] is described as follows: Filtering parameters (in vitro SPF, UVAPF, UVA/UVB, critical wavelength) of W/O formulations on PMMA plates. In kind it is physicochemical. How it is done: The synthesized derivatives were incorporated at increasing concentrations (1%, 2% and 3%) in a topical W/O cosmetic standard formulation, to evaluate the filtering parameters, having the following ingredients composition.
INCI (International Nomenclature Cosmetic Ingredients): aqua, glycerin, Euxyl PE 9010, xanthan gum, ceteareth-12, ceteareth-20, sterearic acid, butylhydroxytoluene, myritol, PEG-7 glyceryl cocoate and 10% sodium solution.
Briefly, the protocol is to finger spread 32.5 mg of each formulation onto 25 cm2 PMMA plates. Each formulation was tested in triplicate by recording five measurements for each dish, after incubation in the dark for 15–30 min at room temperature. UV transmittance data were recorded in the range 290–400 nm using a UV-VIS spectrophotometer.
Blank plate, SPF, UVA-PF and Critical Wavelength were achieved through SPF Calculator Software (version 2.1), Shimadzu, Milan, Italy) as previously reported.
For the determination of the SPF in vitro of the samples in formulation it was decided to use an internal method, developed by us previously and based on the adaptation of the ISO 24443: 2012 [38]. The transmittance spectrum, processed with a specific software (SPF Calculator), made it possible to obtain the SPF, UVAPF, critical lambda and UVA/UVB ratio values of the formulations containing the selected active ingredients (Table 1).

As for `NS(=O)(=O)c1ccc2nc(-c3cccs3)sc2c1` [Compound 10c, 2-(Thiophen-2-Yl)benzothiazole-6-Sulfonamide], the “DPPH (% Inhibition)” value in the data set “In vitro DPPH test” is 21.82 ± 0.06%. This molecule had an FRAP in data set [1] of 60.90 ± 1.87 μmolTE/g. Moreover, the results for the inhibition at 100 µg/mL (in the data set with Microsporum gypseum; in data set [2]; with Epidermophyton floccosum) were 12.36 ± 0.05%, 10.92 ± 0.09% and 10.7 ± 0.31%, respectively.

Regarding `c1coc(-c2nc3ccccc3s2)c1` [Compound 9a, 2-(Furan-2-Yl)benzothiazole], the results for the SPF in data set [3] (1% in W/O formulation), in data set [3] (2% in W/O formulation) and in data set [3] (3% in W/O formulation) were 6.42, 14.18 and 20.23, respectively. Besides, the figures for the UVA/UVB in data set [3] (1% in W/O formulation), in data set [3] (2% in W/O formulation) and in data set [3] (3% in W/O formulation) were 0.34, 0.18 and 0.13, respectively. Besides, the UVAPF turned out to be 1.26 in data set [3] (1% in W/O formulation), 1.60 in data set [3] (2% in W/O formulation) and 1.50 in data set [3] (3% in W/O formulation). Moreover, the λc worked out at 337 nm in data set [3] (1% in W/O formulation), 341 nm in data set [3] (2% in W/O formulation) and 343 nm in data set [3] (3% in W/O formulation). Moreover, the “DPPH (% Inhibition)” value in the data set “In vitro DPPH test” was 24.69 ± 0.14%. In data set [1], this molecule had an FRAP of 72.34 ± 3.42 μmolTE/g. The inhibition at 100 µg/mL with Microsporum gypseum is 74.78 ± 0.59%; in data set [2] it was 54 ± 0.99%; in the data set with Epidermophyton floccosum it was 68.85 ± 0.54%.

In the case of `c1c[nH]c(-c2nc3ccccc3s2)c1` [Compound 8a, 2-(1H-Pyrrol-2-Yl)benzothiazole], the SPF in data set [3] (1% in W/O formulation) came to 4.19; in data set [3] (2% in W/O formulation), 7.16; in data set [3] (3% in W/O formulation) it was 13.05. In addition, the UVA/UVB came to 1.17 in data set [3] (1% in W/O formulation), 0.92 in data set [3] (2% in W/O formulation) and 0.66 in data set [3] (3% in W/O formulation). Besides, the values for the UVAPF in data set [3] (1% in W/O formulation), in data set [3] (2% in W/O formulation) and in data set [3] (3% in W/O formulation) were 2.17, 2.46 and 2.88, respectively. Further, the values for the λc in data set [3] (1% in W/O formulation), in data set [3] (2% in W/O formulation) and in data set [3] (3% in W/O formulation) were 354 nm, 353 nm and 354 nm, respectively. Also, the UVA protection profile entry in data set [3] (UVA-PF at least 1/3 of SPF to be efficient) is “good UVA protection profile”. Besides, in the data set “In vitro DPPH test”, the “DPPH (% Inhibition)” value turned out to be 29.17 ± 1.05%. Also, in data set [1], the FRAP turned out to be 329.85 ± 0.94 μmolTE/g. Moreover, the inhibition at 100 µg/mL was determined as 50 ± 1.34% in the data set on Microsporum gypseum, 10 ± 0.51% in data set [2] and 26 ± 0.66% with Epidermophyton floccosum.

Turning to `c1csc(-c2nc3ccccc3s2)c1` [Compound 10a, 2-(Thiophen-2-Yl)benzothiazole], the SPF in data set [3] (1% in W/O formulation) was determined as 4.86; in data set [3] (2% in W/O formulation), 5.14; in data set [3] (3% in W/O formulation) it was 10.73. The UVA/UVB in data set [3] (1% in W/O formulation) is 0.69; in data set [3] (2% in W/O formulation), 0.62; in data set [3] (3% in W/O formulation), 0.45. Also, the UVAPF in data set [3] (1% in W/O formulation) is given as 1.60; in data set [3] (2% in W/O formulation), 1.60; in data set [3] (3% in W/O formulation) it was 2.02. For the same molecule, the results for the λc in data set [3] (1% in W/O formulation), in data set [3] (2% in W/O formulation) and in data set [3] (3% in W/O formulation) were 347 nm, 347 nm and 349 nm, respectively. Moreover, the “DPPH (% Inhibition)” value in “In vitro DPPH test” was found to be 85.00 ± 0.88%. The molecule further came in with an FRAP in data set [1] of 143.13 ± 3.84 μmolTE/g. Besides, the inhibition at 100 µg/mL came out at 70.4 ± 0.77% in the data set with Microsporum gypseum, 61.95 ± 0.44% in data set [2] and 54.1 ± 0.75% in the data set with Epidermophyton floccosum.

Take `c1c[nH]c(-c2nc3ccccc3[nH]2)c1` [Lead 10, reference compound]: the SPF in data set [3] (1% in W/O formulation) came to 2.44; in data set [3] (2% in W/O formulation) it was 2.72; in data set [3] (3% in W/O formulation), 3.06. In addition, the UVA/UVB in data set [3] (1% in W/O formulation) stood at 0.70; in data set [3] (2% in W/O formulation), 0.73; in data set [3] (3% in W/O formulation), 0.75. Moreover, the values for the UVAPF in data set [3] (1% in W/O formulation), in data set [3] (2% in W/O formulation) and in data set [3] (3% in W/O formulation) were 1.16, 1.32 and 1.54, respectively. The λc in data set [3] (1% in W/O formulation) is given as 341 nm; in data set [3] (2% in W/O formulation), 357 nm; in data set [3] (3% in W/O formulation) it was 364 nm. For the same molecule, the “DPPH IC50” value in the data set “In vitro DPPH test” amounted to 64 ± 3 µg/mL. The “DPPH (% Inhibition)” value in the data set “In vitro DPPH test” was determined as 70.00 ± 3.25%. Moreover, the FRAP in data set [1] is 1085.57 ± 0.88 μmolTE/g. Also, the inhibition at 100 µg/mL came to 99.1 ± 1.33% in the data set on Microsporum gypseum, 96.3 ± 2.42% in data set [2] and 102 ± 4.92% with Epidermophyton floccosum.
